The data set in a line: molar enthalpy of vaporization or sublimation. The note with it: Liquid, Thermogravimetric Analysis.

Each structure is given as a SMILES string. ± gives the expanded uncertainty stated by the source.

On to `CCCCCCCCCCn1cc[n+](C)c1.O=S(=O)([N-]S(=O)(=O)C(F)(F)F)C(F)(F)F`, for which, for the setting “522 K”, the molar enthalpy amounted to 29.9 ± 0.717 kcal/mol.
In the case of `CCCCCCCCCCCCCCn1cc[n+](C)c1.O=S(=O)([N-]S(=O)(=O)C(F)(F)F)C(F)(F)F`, the molar enthalpy (541.8 K) was found to be 31.7 ± 0.717 kcal/mol.
Still for that read-out and setting: to `CCCCCCCCn1cc[n+](C)c1.O=S(=O)([N-]S(=O)(=O)C(F)(F)F)C(F)(F)F` belongs 29.3 ± 0.717 kcal/mol; to `CCCCCC[n+]1ccn(C)c1.O=S(=O)([N-]S(=O)(=O)C(F)(F)F)C(F)(F)F`, 28.2 ± 0.717 kcal/mol.
As to `CCCCCCCCCCCCCCCCCC[n+]1ccn(C)c1.O=S(=O)([N-]S(=O)(=O)C(F)(F)F)C(F)(F)F`, under “582.5 K”, the molar enthalpy was found to be 33.1 ± 0.717 kcal/mol.
Consider `CCCCCCCCCCCCCCCCn1cc[n+](C)c1.O=S(=O)([N-]S(=O)(=O)C(F)(F)F)C(F)(F)F`, for which the molar enthalpy (541.8 K) was 32.6 ± 0.717 kcal/mol.
As to `CCCC[n+]1ccn(C)c1.O=S(=O)([N-]S(=O)(=O)C(F)(F)F)C(F)(F)F`, the molar enthalpy (541.8 K) is 27.1 ± 0.717 kcal/mol.
As to `CCCCCCCCCCCCn1cc[n+](C)c1.O=S(=O)([N-]S(=O)(=O)C(F)(F)F)C(F)(F)F`, for the setting “533.5 K”, the molar enthalpy turned out to be 30.1 ± 0.717 kcal/mol.

The record behind these values is the NIST ThermoML archive (doi:10.1016/j.jct.2012.05.029).
